The source made the active and inactive calls. No rule for the calls is given here.
The compounds below were run against Cell division control protein 42 homolog (Homo sapiens) (UniProt P60953) (assay: inhibition of fluorescent GTP binding to Cdc42 wt – biochemical, bead-based multiplex flow cytometry, additional SAR set, SAR follow-up (AID 2022)). Settings: not given.
Sequence of Cell division control protein 42 homolog (Homo sapiens) (P60953 whole entry, looked up): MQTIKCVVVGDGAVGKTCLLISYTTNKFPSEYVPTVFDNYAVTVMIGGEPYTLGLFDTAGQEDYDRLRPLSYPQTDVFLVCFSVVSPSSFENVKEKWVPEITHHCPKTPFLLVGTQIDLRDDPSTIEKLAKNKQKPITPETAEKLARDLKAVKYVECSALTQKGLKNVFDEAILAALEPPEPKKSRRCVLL
`O=Nc1c(-c2c(O)[nH]c3c(Cl)cccc23)[nH]c2ccccc12` was tested, and the EC50 was > 30 µM (inactive). In the case of `O=Nc1c(-c2c(O)[nH]c3ccccc23)[nH]c2ccccc12`, the EC50 is reported as > 30 µM (inactive). With `O=C1C(c2c(O)[nH]c3c(Cl)cccc23)=Nc2ccccc21` the EC50 was “inactive”. With `O=C1C(c2c(O)[nH]c3ccc(Br)cc23)=Nc2ccccc21` the EC50 was > 30 µM (inactive). For `O=Nc1c(-c2c(O)[nH]c3c(Br)cccc23)[nH]c2ccccc12`, the EC50 was > 30 µM (inactive). For `O=C1N=c2ccccc2=C1c1[nH]c(=O)[nH]c1O`, the EC50 was > 30 µM (inactive). In the case of `O=C1C(c2c(O)[nH]c3c(F)cccc23)=Nc2ccccc21`, the EC50 is reported as > 30 µM (inactive). `O=Nc1c(-c2c(O)[nH]c3c(F)cccc23)[nH]c2ccccc12` was tested, and the EC50 was “inactive”. In the case of `O=C1N=c2ccccc2=C1c1[nH]c(=S)[nH]c1O`, the EC50 is reported as > 30 µM (inactive). `O=C1C(c2c(O)[nH]c3ccccc23)=Nc2ccccc21` was tested, and the EC50 was > 30 µM (inactive). In the case of `O=Nc1c(-c2c(O)[nH]c3ccc(Br)cc23)[nH]c2ccccc12`, the EC50 is reported as > 30 µM (inactive). In the case of `O=C1C(c2c(O)[nH]c3c(Br)cccc23)=Nc2ccccc21`, the EC50 is reported as > 30 µM (inactive).

Same assay, conditions: measured here: Ki for Cdc42 wildtype
With `O=C1C(c2c(O)[nH]c3c(Cl)cccc23)=Nc2ccccc21` the Ki was 0.01 µM. `COc1ccc(-c2c(C#N)c(N)n(S(C)(=O)=O)c2C(=O)c2ccccc2)cc1Br` gave a Ki of 2.37 µM. For `CC(C)Cc1ccc([C@H](C)C(=O)O)cc1`, the Ki was 3.51 µM. With `O=Nc1c(-c2c(O)[nH]c3c(F)cccc23)[nH]c2ccccc12` the Ki was 5.93 µM. Compound `N#Cc1c(-c2ccc(Cl)cc2)c(C(=O)c2ccccc2)n(S(=O)(=O)c2ccc([N+](=O)[O-])cc2)c1N` has a Ki of 1.52 µM. For `COc1ccc(S(=O)(=O)n2c(N)c(C#N)c(-c3cncc(Br)c3)c2C(=O)c2ccccc2)cc1`, the Ki was 4.81 µM.

From PubChem BioAssay AID2022 (NMMLSC, 2009)
